“Also recorded” adds a separate entry of the source.
What was measured:
[1] = tested on: Hh target gene Gli1 expression in NIH3T3-E1 cells; experiment: Inhibition of CAPAN-1 conditioned medium (ligand)-induced Gli1 mRNA expression, Q-RT-PCR; format: cell-based; settings: 72 h
From the text: (§1) NIH3T3-E1 fibroblasts were obtained from ATCC (Manassas, VA) and cultured, as previously described. CAPAN-1 and PANC-1 human pancreatic cancer cells were obtained from ATCC and cultured in Dulbecco’s Modified Eagle Medium (DMEM) containing 10% heat-inactivated fetal bovine serum (FBS) (Hyclone Laboratories, Logan, UT, USA) and antibiotics, as previously described. The human lung cancer cell lines A549 and H2030 were obtained from ATCC and cultured in RPMI-1640 containing 10% FBS. The human hepatoma cell line HepG2 was obtained from ATCC and cultured in DMEM containing 10% FBS. Mouse embryonic fibroblasts (MEFs) from suppressor of fused (Sufu) null mice (Sufu^−/−) were provided by Dr. Philip Beachy of Stanford University and cultured in DMEM containing 10% FBS. Gant61, SB431542 and vismodegib (GDC0449) were obtained from Cayman Chemical, HPI-1 was obtained from Abcam. For experiments, cells were treated in a medium containing 5% FBS.
Growth medium in confluent […] tissue culture plates of CAPAN-1 cells were replaced with 10 ml of fresh growth medium and cells were incubated for a total of 7 days. Conditioned medium (CM), containing Shh and Ihh, was collected and spun down to remove any detached cells and debris, aliquoted, and stored frozen at −80 °C [37].
(§2) Total RNA was extracted with the RNeasy Plus Mini Kit from Qiagen, according to the manufacturer’s instructions. One microgram of RNA was reverse-transcribed using an iScript Reverse Transcription Supermix from Bio-Rad, to make single-stranded cDNA. The cDNAs were then mixed with Qi SYBR Green Supermix (Bio-Rad, Hercules, CA, USA) for quantitative RT-PCR assay using a Bio-Rad I-cycler IQ quantitative thermocycler. […] Fold changes in gene expression were calculated using the ΔΔCt method. […]
(§3) Figure 3 Inhibition of ligand-induced Hedgehog signaling. […] After 72 h, RNA was extracted and analyzed by Q-RT-PCR for the expression of Hh target genes Gli1 (a,b,d) and Ptch1 (c), and normalized to Oaz1 expression. […] Luciferase activity was measured and normalized to the Renilla luciferase activity. […]

[2] = tested on: Gli1 transcriptional activity in NIH3T3-E1 cells; experiment: Gli responsive luciferase reporter trans-activated by exogenous Gli1; format: cell-based, mouse; settings: 72 h
Experimental: NIH3T3-E1 and Sufu^−/− cells cultured in 24-well plates at 90% confluence were transiently transfected with 0.1 µg of Gli response-element reporter (pGL3b-8xGli-Luciferase) plasmid, and 10 ng of pTK-Renilla-Luciferase plasmid with or without co-transfection with 10 ng of Gli1 overexpression vector, pSRα-Gli1, as previously described using Lipofectamine LTX Plus transfection reagent (Invitrogen). Twenty-four h after transfection, cells were treated with test agents for 72 h. Then the firefly and Renilla luciferase activities were measured using a dual luciferase kit (Promega, Madison, WI, USA) and a GloMax-96 Microplate Luminometer. The firefly luciferase activities were normalized to the Renilla luciferase activities. Data are reported as the mean of triplicate determinations ± SD.
Figure 5 Oxy186 acts downstream of Smo. (a) Sufu^−/− mouse embryonic fibroblast (MEF) cells were treated with DMEM containing 10% FBS in the presence or absence of Oxy186 (10 µM). After 72 h, RNA was extracted and analyzed by Q-RT-PCR for the expression of Hh target genes Gli1, Ptch1, and Hip, normalized to Oaz1 expression. […] Luciferase activity was measured and normalized to the Renilla luciferase activity. […]

[3] = tested on: Hh target genes, Gli1 and Ptch1; experiment: Induction of Hh target genes by oxysterol alone in NIH3T3-E1 cells, Q-RT-PCR; format: cell-based, mouse; settings: up to 10 µM, no CM
Experimental: Total RNA was extracted with the RNeasy Plus Mini Kit from Qiagen, according to the manufacturer’s instructions. One microgram of RNA was reverse-transcribed using an iScript Reverse Transcription Supermix from Bio-Rad, to make single-stranded cDNA. The cDNAs were then mixed with Qi SYBR Green Supermix (Bio-Rad, Hercules, CA, USA) for quantitative RT-PCR assay using a Bio-Rad I-cycler IQ quantitative thermocycler. All PCR samples were prepared in triplicate wells in a 96-well plate. After 40 cycles of PCR, melt curves were examined in order to ensure primer specificity. Fold changes in gene expression were calculated using the ΔΔCt method. Primers used for mouse were as follows: Oaz1 (5’-CCACTGCTTCGCCAGAGAG-3’) and (5’-CCCGGACCCAGGTTACTA-3’), Gli1 (5’-[…]-3’ and 5’-[…]-3’), Ptch1 (5’-CCATCGGCGACAAGAACC-3’ and 5’-[…]-3’), Hip (5’-[…]-3’ and 5’-[…]-3’), and Abca1 (5’-[…]-3’ and 5’-[…]-3’). […]
as §3

[4] = Metabolic stability in human liver microsomes; format: in vitro ADME
[5] = tested on: Hh pathway target genes Gli1, Ptch1, and Hip in Sufu-/- mouse embryonic fibroblasts; experiment: Inhibition of Hh target gene expression in Sufu-/- MEFs, Q-RT-PCR; format: cell-based; settings: 10 µM, 72 h
From the text: as §1, with “Gant61, SB431542 and vismodegib (GDC0449) were obtained from Cayman Chemical, HPI-1 was obtained from Abcam. For experiments, cells were treated in a medium containing 5% FBS.” left out
as §2, with “One microgram of RNA was reverse-transcribed using an iScript Reverse Transcription Supermix from Bio-Rad, to make single-stranded cDNA.” left out
Figure 5 Oxy186 acts downstream of Smo. […] After 72 h, RNA was extracted and analyzed by Q-RT-PCR for the expression of Hh target genes Gli1, Ptch1, and Hip, normalized to Oaz1 expression. […] Luciferase activity was measured and normalized to the Renilla luciferase activity. […]

C[C@]12CC[C@H](O)C[C@@H]1CC[C@@H]1[C@@H]2CC[C@@]2(C)[C@H]1CC[C@@H]2[C@](C)(O)CCc1ccc(F)cc1 [Oxy186, (3S,5S,8R,9S,10S,13S,14S,17S)-17-((R)-4-(4-fluorophenyl)-2-hydroxybutan-2-yl)-10,13-dimethylhexadecahydro-1H-cyclopenta[a]phenanthren-3-ol]
Inhibition of ligand-induced Gli1 mRNA expression ([1]; NIH3T3-E1 cells, CAPAN-1 CM): robustly inhibited; also recorded: greater Hh signaling inhibitory efficacy than Oxy16 | IC50 ([1]; NIH3T3 cells activated by CAPAN-1 CM Hh ligands): 600 nM | Inhibition of Gli responsive luciferase reporter trans-activated by over expressed exogenous Gli1 [2]: significantly inhibited | Induction of Hh target genes Gli1 and Ptch1 [3]: not | HLM, Half-Life [4]: 45 min | remaining at 1 h ([4]; 60 min, read-out: HLM, % Remaining after 60 min): 40% | half-life ([4]; human, liver microsomes, read-out: HLM, Half-Life): 43 min | Inhibition of high baseline expression of Hh pathway target genes Gli1, Ptch1, and Hip [5]: significant inhibition
